Results published in PubChem BioAssay (NCI).
Values joined by “and” are separate entries in the source; they are usually repeats but may differ in a detail not shown here. Equal values may be shown once.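 The compound was tested at five concentrations on cells cultured in 96-well plates, with a 48-hour exposure period. GI50: concentration for 50% inhibition of growth. TGI is the concentration that stops growth completely.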

Assays:
Assay in all cases: NCI anticancer screen, dose series, 48 h
[1] = system: SNB-75 CNS
[2] = system: SR leukemia
[3] = system: HS 578T breast
[4] = system: U251 CNS
[5] = system: K-562 leukemia
[6] = system: UACC-257 melanoma
[7] = system: MALME-3M melanoma
[8] = system: A498 renal
[9] = system: CAKI-1 renal
[10] = system: PC-3 prostate

SMILES: Cc1nc(Nc2n[nH]c3c2CN(C(=O)N[C@H](CN(C)C)c2ccccc2)C3(C)C)c2sccc2n1
- GI50 [1]: 0.206 µM and 0.284 µM
- TGI [1]: 2.23 µM and 2.82 µM
- GI50 [2]: 0.00432 µM and < 0.01 µM
- GI50 [3]: 0.144 µM and 0.469 µM
- TGI [3]: > 5.44 µM and 14.7 µM
- GI50 [4]: 0.0242 µM and 0.0325 µM
- TGI [4]: > 7.15 µM and 8.11 µM
- GI50 [5]: 0.0242 µM and 0.199 µM
- TGI [5]: > 100 µM
- GI50 [6]: < 0.0106 µM
- TGI [6]: 1.27 µM and 4.34 µM
- GI50 [7]: 0.0473 µM and < 0.01 µM
- TGI [7]: 0.497 µM and 2.44 µM
- TGI [8]: 1.85 µM and 3.25 µM
- TGI [9]: > 5.08 µM and 51.9 µM
- GI50 [10]: 0.242 µM and 0.041 µM
- TGI [10]: > 6.33 µM and 9.76 µM

SMILES: CC(=O)NNc1nc(C)c(C(=O)NNC(=O)C(=O)Nc2nc3ccc([N+](=O)[O-])cc3s2)s1
- TGI [1]: > 100 µM
- TGI [2]: > 72.2 µM
- TGI [3]: > 100 µM
- TGI [4]: > 100 µM
- TGI [5]: > 70.6 µM
- TGI [6]: > 100 µM
- TGI [7]: > 100 µM
- TGI [8]: > 70.8 µM
- TGI [9]: > 92.6 µM
- TGI [10]: > 100 µM

SMILES: COc1ccc(-c2nnc(N3CCN(C(=O)CN4CCN(c5ccc(OC)cc5)CC4)CC3)nc2-c2ccc(OC)cc2)cc1
- GI50 [1]: 15.6 µM
- TGI [1]: 44.8 µM
- GI50 [2]: 2.1 µM
- TGI [2]: 4.04 µM
- GI50 [3]: 2.84 µM
- TGI [3]: 9.2 µM
- GI50 [4]: 5.31 µM
- TGI [4]: 66.1 µM
- GI50 [5]: 2.14 µM
- TGI [5]: 4.44 µM
- GI50 [6]: 17.5 µM
- TGI [6]: 39.5 µM
- GI50 [7]: 3.17 µM
- TGI [7]: 23.1 µM
- GI50 [8]: 25.8 µM
- TGI [8]: 50.4 µM
- GI50 [9]: 15.5 µM
- TGI [9]: 51.1 µM
- GI50 [10]: 8.49 µM
- TGI [10]: 26.9 µM

SMILES: O=C1c2cccnc2-c2nc(-c3ccncc3)cc3c2c1nc1ccccc13
- GI50 [1]: 13.1 µM
- TGI [1]: 25.8 µM
- GI50 [2]: 2.94 µM
- TGI [2]: > 100 µM
- GI50 [3]: 10.6 µM
- TGI [3]: 23.1 µM
- GI50 [4]: 12 µM
- TGI [4]: 64.5 µM
- GI50 [5]: 15.4 µM
- TGI [5]: > 100 µM
- GI50 [6]: > 100 µM
- TGI [6]: > 100 µM
- GI50 [7]: 14.9 µM
- TGI [7]: 29.3 µM
- GI50 [8]: 38.5 µM
- TGI [8]: > 100 µM
- GI50 [9]: 16.4 µM
- TGI [9]: 34.8 µM
- GI50 [10]: 16.1 µM
- TGI [10]: 61.9 µM

SMILES: CCN(CC)CCNC(=O)c1c(C)[nH]c(/C=C2\C(=O)Nc3ccc(F)cc32)c1C
- GI50 [1]: 4.61 µM and 2.11 µM and 4.33 µM
- TGI [1]: > 10 µM and 4.55 µM and 14 µM
- GI50 [2]: 1.97 µM and 4.56 µM and 1.27 µM
- TGI [2]: 5.11 µM and 14.2 µM and 3.74 µM
- GI50 [3]: 3.01 µM and 3.57 µM and 2.4 µM
- TGI [3]: > 10 µM and 17.7 µM and 15.3 µM
- GI50 [4]: 5.33 µM and 3.06 µM and 2.25 µM
- TGI [4]: > 10 µM and 6.34 µM and 7.54 µM
- GI50 [5]: 2.29 µM and 3.22 µM and 1.53 µM
- TGI [5]: > 10 µM and 9.75 µM and 5.57 µM
- GI50 [6]: > 10 µM and 2.49 µM and 3.24 µM
- TGI [6]: > 10 µM and 5.21 µM and 8.69 µM
- GI50 [7]: 1.87 µM and 2.18 µM and 1.16 µM
- TGI [7]: 6.55 µM and 5.1 µM and 2.91 µM
- GI50 [8]: > 10 µM and 2.21 µM and 2.84 µM
- TGI [8]: > 10 µM and 4.83 µM and 15.4 µM
- GI50 [9]: 1.07 µM and 1.04 µM and 0.794 µM
- TGI [9]: > 10 µM and 20 µM and 6.77 µM
- GI50 [10]: 1.84 µM and 3.82 µM and 2.9 µM
- TGI [10]: > 10 µM and 20 µM and 14.5 µM

SMILES: CCC(=C(c1ccc(OCCCN(C)C)cc1)c1ccc(OCCCN(C)C)cc1)c1ccc(Cl)cc1
- GI50 [1]: 1.56 µM
- TGI [1]: 3.89 µM
- GI50 [2]: 0.288 µM
- TGI [2]: 0.716 µM
- GI50 [3]: 2.3 µM
- TGI [3]: 5.35 µM
- GI50 [4]: 0.419 µM
- TGI [4]: 1.1 µM
- GI50 [5]: 0.324 µM
- TGI [5]: 0.78 µM
- GI50 [6]: 0.883 µM
- TGI [6]: 2.24 µM
- GI50 [7]: 0.36 µM
- TGI [7]: 0.973 µM
- GI50 [8]: 1.7 µM
- TGI [8]: 4.39 µM
- GI50 [9]: 0.56 µM
- TGI [9]: 2.19 µM
- GI50 [10]: 1.09 µM
- TGI [10]: 3.39 µM

SMILES: C=CCSc1nc2ccccc2c(=O)n1Cc1ccco1
- TGI [1]: > 100 µM
- TGI [2]: > 100 µM
- TGI [3]: > 100 µM
- TGI [4]: > 100 µM
- TGI [5]: > 100 µM
- TGI [6]: > 100 µM
- TGI [7]: > 100 µM
- TGI [8]: > 100 µM
- TGI [9]: > 100 µM
- TGI [10]: > 100 µM
